# Tested on: K98450-129-R-PDC complex spheroid growth, percent test/control
# Experiment: Anticancer human tumor K98450-129-R-PDC patient-derived colon adenocarcinoma cell line growth inhibition [RAS]
# Details: for IC50: curve of first compound; for viability, T/C: stronger effect = lower value
# Outline: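 Multi-cell-type spheroids: tumor cells plus HUVEC endothelial cells and mesenchymal stem cells. RAS-pathway inhibitors were combined with targeted agents, each dosed in half-log steps down from clinical Cmax, or from 10 microM when Cmax was unknown.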
# [1] = second compound 0.000949 µM, first compound 0.0316 µM
# [2] = second compound 0.000949 µM, first compound 0.1 µM
# [3] = second compound 0.000949 µM, first compound 0.316 µM
# [4] = second compound 0.000949 µM, first compound 1 µM
# [5] = second compound 0.000949 µM, first compound 3.16 µM
# [6] = second compound 0.000949 µM, first compound 10 µM
# [7] = second compound 0.003 µM, first compound 0.0316 µM
# [8] = second compound 0.003 µM, first compound 0.1 µM
# [9] = second compound 0.003 µM, first compound 0.316 µM
# [10] = second compound 0.003 µM, first compound 1 µM
# [11] = second compound 0.003 µM, first compound 3.16 µM
# [12] = second compound 0.003 µM, first compound 10 µM
# [13] = second compound 0.00949 µM, first compound 0.0316 µM
# [14] = second compound 0.00949 µM, first compound 0.1 µM
# [15] = second compound 0.00949 µM, first compound 0.316 µM
# [16] = second compound 0.00949 µM, first compound 1 µM
# [17] = second compound 0.00949 µM, first compound 3.16 µM
# [18] = second compound 0.00949 µM, first compound 10 µM
# [19] = second compound 0.03 µM, first compound 0.0316 µM
# [20] = second compound 0.03 µM, first compound 0.1 µM
# [21] = second compound 0.03 µM, first compound 0.316 µM
# [22] = second compound 0.03 µM, first compound 1 µM
# [23] = second compound 0.03 µM, first compound 3.16 µM
# [24] = second compound 0.03 µM, first compound 10 µM
# [25] = second compound 0.0949 µM, first compound 0.0316 µM
# [26] = second compound 0.0949 µM, first compound 0.1 µM
# [27] = second compound 0.0949 µM, first compound 0.316 µM
# [28] = second compound 0.0949 µM, first compound 1 µM
# [29] = second compound 0.0949 µM, first compound 3.16 µM
# [30] = second compound 0.0949 µM, first compound 10 µM
# [31] = second compound 0.3 µM, first compound 0.0316 µM
# [32] = second compound 0.3 µM, first compound 0.1 µM
# [33] = second compound 0.3 µM, first compound 0.316 µM
# [34] = second compound 0.3 µM, first compound 1 µM
# [35] = second compound 0.3 µM, first compound 3.16 µM
# [36] = second compound 0.3 µM, first compound 10 µM
# 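Also: spheroids exposed to agents for seven days before the viability readout.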
# 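For viability, T/C in this document: luminescence used as a proxy for viable cell amount.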
smiles,measurement,setting,value
CC(=O)OC12COC1CC(O)C1(C)C(=O)C(O)C3=C(C)C(OC(=O)C(O)C(NC(=O)OC(C)(C)C)c4ccccc4)CC(O)(C(OC(=O)c4ccccc4)C21)C3(C)C (centres undefined) + CCn1c(-c2cc(N3CCN(C)CC3)cnc2C(C)OC)c2c3cc(ccc31)-c1csc(n1)CC(NC(=O)C1CC1C)C(=O)N1CCCC(N1)C(=O)OCC(C)(C)C2,IC50,second compound 0.000949 µM,688 nM
same,IC50,second compound 0.003 µM,252 nM
same,IC50,second compound 0.00949 µM,188 nM
same,IC50,second compound 0.03 µM,< 31.6 nM
same,IC50,second compound 0.0949 µM,< 31.6 nM
same,IC50,second compound 0.3 µM,< 31.6 nM
same,"viability, T/C",[1],101%
same,"viability, T/C",[2],78.6%
same,"viability, T/C",[3],66.3%
same,"viability, T/C",[4],39.4%
same,"viability, T/C",[5],38.4%
same,"viability, T/C",[6],34%
same,"viability, T/C",[7],95.8%
same,"viability, T/C",[8],69.4%
same,"viability, T/C",[9],46%
same,"viability, T/C",[10],29.2%
same,"viability, T/C",[11],32.5%
same,"viability, T/C",[12],22.4%
same,"viability, T/C",[13],64.7%
same,"viability, T/C",[14],70.1%
same,"viability, T/C",[15],35.6%
same,"viability, T/C",[16],24.6%
same,"viability, T/C",[17],23.5%
same,"viability, T/C",[18],19.2%
same,"viability, T/C",[19],44.9%
same,"viability, T/C",[20],43.2%
same,"viability, T/C",[21],20.9%
same,"viability, T/C",[22],16.6%
same,"viability, T/C",[23],15.8%
same,"viability, T/C",[24],15.3%
same,"viability, T/C",[25],17.3%
same,"viability, T/C",[26],14.5%
same,"viability, T/C",[27],12.4%
same,"viability, T/C",[28],12.5%
same,"viability, T/C",[29],12.5%
same,"viability, T/C",[30],10.7%
same,"viability, T/C",[31],11%
same,"viability, T/C",[32],10.1%
same,"viability, T/C",[33],11%
same,"viability, T/C",[34],9.96%
same,"viability, T/C",[35],10.9%
same,"viability, T/C",[36],9.38%
CCC(CC)c1cc(NC2CCC(N)C2)n2nccc2n1 (centres undefined) + CCn1c(-c2cc(N3CCN(C)CC3)cnc2C(C)OC)c2c3cc(ccc31)-c1csc(n1)CC(NC(=O)C1CC1C)C(=O)N1CCCC(N1)C(=O)OCC(C)(C)C2,IC50,second compound 0.000949 µM,4120 nM
same,IC50,second compound 0.003 µM,3690 nM
same,IC50,second compound 0.00949 µM,2350 nM
same,IC50,second compound 0.03 µM,887 nM
same,IC50,second compound 0.0949 µM,< 31.6 nM
same,IC50,second compound 0.3 µM,< 31.6 nM
same,"viability, T/C",[1],97.9%
same,"viability, T/C",[2],88%
same,"viability, T/C",[3],95.7%
same,"viability, T/C",[4],65.1%
same,"viability, T/C",[5],68.5%
same,"viability, T/C",[6],16.4%
same,"viability, T/C",[7],91.7%
same,"viability, T/C",[8],83.2%
same,"viability, T/C",[9],75.7%
same,"viability, T/C",[10],66.3%
same,"viability, T/C",[11],63.3%
same,"viability, T/C",[12],13.3%
same,"viability, T/C",[13],81.2%
same,"viability, T/C",[14],60.9%
same,"viability, T/C",[15],61%
same,"viability, T/C",[16],62.7%
same,"viability, T/C",[17],48.6%
same,"viability, T/C",[18],12.9%
same,"viability, T/C",[19],57.4%
same,"viability, T/C",[20],44.2%
same,"viability, T/C",[21],51.2%
same,"viability, T/C",[22],49.9%
same,"viability, T/C",[23],18.6%
same,"viability, T/C",[24],12.2%
same,"viability, T/C",[25],23.2%
same,"viability, T/C",[26],20.8%
same,"viability, T/C",[27],20.7%
same,"viability, T/C",[28],17%
same,"viability, T/C",[29],5.39%
same,"viability, T/C",[30],10.7%
same,"viability, T/C",[31],12.3%
same,"viability, T/C",[32],13%
same,"viability, T/C",[33],11.2%
same,"viability, T/C",[34],11.6%
same,"viability, T/C",[35],3.99%
same,"viability, T/C",[36],12.9%
